Molecular target: T1, Aβ42 (Homo sapiens, UniProt P05067)
T1 construct: the amyloid β42 protein (Aβ42)
Assay: MSHTS quantification of aggregated Aβ with QD-Aβ40 in filtrate collected with Blocking 12
Format: biochemical
Conditions: Aβ42 and QD-Aβ40, 37° C. for 24 hours, SD value, read-out: RA concentration at which Aβ accounting for approximately 50% of the whole would not be aggregated
Description: Accordingly, whether or not it is possible to visualize aggregation of the amyloid β protein in such filtrate was examined. The quantum-dot-modified amyloid 40 protein (QD-Aβ40) was dissolved in the filtrate collected in Example 3, the solution was added to and mixed with the 1 mM Aβ42 solution, and the filtrate collected in Example 3 comprising 50 μM Aβ42 and 50 nM QD-Aβ40 was prepared. The 150 mM rosmarinic acid (RA) solution was diluted with the filtrate collected in Example 3 to five levels of concentration (3,000 μM, 600 μM, 120 μM, 24 μM, and 4.8 μM). Aβ42 and QD-A$40 were diluted with the filtrate collected in Example 3 to prepare a mixture of 50 μM Aβ42 and 50 nM QD-Aβ40. […] As a result, none of the solutions were sufficient in terms of sensitivity of SD values to perform quantitative analysis of aggregated Aβ (FIG. 4).
With the use of Blocking 12, accordingly, a 50 μM Aβ42 solution was prepared from the filtrate collected in the same manner as in Example 2, and QD-Aβ40 was diluted in the collected filtrate to adjust the concentration of QD-Aβ40 to 50 nM. […] These reaction solutions were incubated at 37° C. for 24 hours, aggregated Aβ was observed under a fluorescent microscope, and aggregated AD was quantified. […] It was found necessary that the sensitivity of the SD value be 60% or higher relative to that of PBS designated as 100% for quantification of aggregated AD.

T1 sequence (P05067 672-713 limits assumed): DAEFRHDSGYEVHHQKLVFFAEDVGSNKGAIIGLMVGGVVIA

Molecule `O=C(/C=C/c1ccc(O)c(O)c1)O[C@H](Cc1ccc(O)c(O)c1)C(=O)O` [RA, rosmarinic acid] has an EC50 of at most 46 µM.
